# Test system: Transport facilitation protein genes
# Experiment: DNA chip mRNA expression in yeast, transport facilitation protein genes (Table 5)
# Type: cell-based, Saccharomyces cerevisiae S288C
# How it was run: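 Expression change after 2 h toxicant exposure (growth-inhibiting, sub-lethal) of log-phase S. cerevisiae S288C at 25° C. Oligo-dT-purified mRNA was labeled with Cy3-dUTP or Cy5-dUTP and hybridized >12 h at 65° C. to a genome-wide chip; ratio of scanned fluorescence to control.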
compound,measurement,setting,value
"Cl[C@H]1[C@H](Cl)[C@@H](Cl)[C@@H](Cl)[C@H](Cl)[C@H]1Cl [(7), γ-hexachlorocyclohexane]",The level of expressed mRNA in the presence of chemical substance/The level of expressed mRNA in the absence of chemical substance,yeast gene YGR260W,0.9
same,The level of expressed mRNA in the presence of chemical substance/The level of expressed mRNA in the absence of chemical substance,yeast gene YGR281W,0.9
same,The level of expressed mRNA in the presence of chemical substance/The level of expressed mRNA in the absence of chemical substance,yeast gene YHL035C,1.7
same,The level of expressed mRNA in the presence of chemical substance/The level of expressed mRNA in the absence of chemical substance,yeast gene YHL040C,4.0
same,The level of expressed mRNA in the presence of chemical substance/The level of expressed mRNA in the absence of chemical substance,yeast gene YHL047C,16.8
same,The level of expressed mRNA in the presence of chemical substance/The level of expressed mRNA in the absence of chemical substance,yeast gene YHR026W,0.9
same,The level of expressed mRNA in the presence of chemical substance/The level of expressed mRNA in the absence of chemical substance,yeast gene YHR092C,0.5
same,The level of expressed mRNA in the presence of chemical substance/The level of expressed mRNA in the absence of chemical substance,yeast gene YHR094C,0.8
same,The level of expressed mRNA in the presence of chemical substance/The level of expressed mRNA in the absence of chemical substance,yeast gene YHR175W,1.6
same,The level of expressed mRNA in the presence of chemical substance/The level of expressed mRNA in the absence of chemical substance,yeast gene YIL006W,0.8
same,The level of expressed mRNA in the presence of chemical substance/The level of expressed mRNA in the absence of chemical substance,yeast gene YIL022W,0.7
same,The level of expressed mRNA in the presence of chemical substance/The level of expressed mRNA in the absence of chemical substance,yeast gene YIL056W,0.6
same,The level of expressed mRNA in the presence of chemical substance/The level of expressed mRNA in the absence of chemical substance,yeast gene YIL088C,1.7
same,The level of expressed mRNA in the presence of chemical substance/The level of expressed mRNA in the absence of chemical substance,yeast gene YJL034W,1.3
same,The level of expressed mRNA in the presence of chemical substance/The level of expressed mRNA in the absence of chemical substance,yeast gene YJL212C,0.7
same,The level of expressed mRNA in the presence of chemical substance/The level of expressed mRNA in the absence of chemical substance,yeast gene YJL219W,0.9
same,The level of expressed mRNA in the presence of chemical substance/The level of expressed mRNA in the absence of chemical substance,yeast gene YJR077C,0.7
same,The level of expressed mRNA in the presence of chemical substance/The level of expressed mRNA in the absence of chemical substance,yeast gene YJR106W,1.0
same,The level of expressed mRNA in the presence of chemical substance/The level of expressed mRNA in the absence of chemical substance,yeast gene YJR121W,1.0
same,The level of expressed mRNA in the presence of chemical substance/The level of expressed mRNA in the absence of chemical substance,yeast gene YKL016C,1.5
same,The level of expressed mRNA in the presence of chemical substance/The level of expressed mRNA in the absence of chemical substance,yeast gene YKL146W,0.9
same,The level of expressed mRNA in the presence of chemical substance/The level of expressed mRNA in the absence of chemical substance,yeast gene YKR039W,1.0
same,The level of expressed mRNA in the presence of chemical substance/The level of expressed mRNA in the absence of chemical substance,yeast gene YKR067W,2.0
same,The level of expressed mRNA in the presence of chemical substance/The level of expressed mRNA in the absence of chemical substance,yeast gene YLL028W,1.0
same,The level of expressed mRNA in the presence of chemical substance/The level of expressed mRNA in the absence of chemical substance,yeast gene YLR081W,0.7
same,The level of expressed mRNA in the presence of chemical substance/The level of expressed mRNA in the absence of chemical substance,yeast gene YLR295C,1.1
same,The level of expressed mRNA in the presence of chemical substance/The level of expressed mRNA in the absence of chemical substance,yeast gene YLR348C,0.9
same,The level of expressed mRNA in the presence of chemical substance/The level of expressed mRNA in the absence of chemical substance,yeast gene YLR378C,0.7
same,The level of expressed mRNA in the presence of chemical substance/The level of expressed mRNA in the absence of chemical substance,yeast gene YMR011W,0.8
same,The level of expressed mRNA in the presence of chemical substance/The level of expressed mRNA in the absence of chemical substance,yeast gene YMR162C,0.8
same,The level of expressed mRNA in the presence of chemical substance/The level of expressed mRNA in the absence of chemical substance,yeast gene YMR203W,0.8
same,The level of expressed mRNA in the presence of chemical substance/The level of expressed mRNA in the absence of chemical substance,yeast gene YNL055C,1.2
same,The level of expressed mRNA in the presence of chemical substance/The level of expressed mRNA in the absence of chemical substance,yeast gene YNL259C,3.8
same,The level of expressed mRNA in the presence of chemical substance/The level of expressed mRNA in the absence of chemical substance,yeast gene YNR072W,1.5
same,The level of expressed mRNA in the presence of chemical substance/The level of expressed mRNA in the absence of chemical substance,yeast gene YOL119C,2.2
same,The level of expressed mRNA in the presence of chemical substance/The level of expressed mRNA in the absence of chemical substance,yeast gene YOL156W,1.0
same,The level of expressed mRNA in the presence of chemical substance/The level of expressed mRNA in the absence of chemical substance,yeast gene YOL163W,0.9
same,The level of expressed mRNA in the presence of chemical substance/The level of expressed mRNA in the absence of chemical substance,yeast gene YOR035C,1.3
same,The level of expressed mRNA in the presence of chemical substance/The level of expressed mRNA in the absence of chemical substance,yeast gene YOR130C,1.3
same,The level of expressed mRNA in the presence of chemical substance/The level of expressed mRNA in the absence of chemical substance,yeast gene YOR153W,2.6
same,The level of expressed mRNA in the presence of chemical substance/The level of expressed mRNA in the absence of chemical substance,yeast gene YOR270C,1.0
same,The level of expressed mRNA in the presence of chemical substance/The level of expressed mRNA in the absence of chemical substance,yeast gene YOR273C,0.4
same,The level of expressed mRNA in the presence of chemical substance/The level of expressed mRNA in the absence of chemical substance,yeast gene YOR316C,1.4
same,The level of expressed mRNA in the presence of chemical substance/The level of expressed mRNA in the absence of chemical substance,yeast gene YOR332W,0.9
same,The level of expressed mRNA in the presence of chemical substance/The level of expressed mRNA in the absence of chemical substance,yeast gene YOR348C,0.8
same,The level of expressed mRNA in the presence of chemical substance/The level of expressed mRNA in the absence of chemical substance,yeast gene YPL036W,0.3
same,The level of expressed mRNA in the presence of chemical substance/The level of expressed mRNA in the absence of chemical substance,yeast gene YPL134C,1.2
same,The level of expressed mRNA in the presence of chemical substance/The level of expressed mRNA in the absence of chemical substance,yeast gene YPL271W,1.2
same,The level of expressed mRNA in the presence of chemical substance/The level of expressed mRNA in the absence of chemical substance,yeast gene YPR192W,0.9
same,The level of expressed mRNA in the presence of chemical substance/The level of expressed mRNA in the absence of chemical substance,yeast gene YPR194C,0.7

# — patent publication US8192962B2, “Processes for detecting toxic substances” (Daikin Industries, Ltd., priority 2001, dated 2012)
